{
  "source": "patent EP0741188A2",
  "about": "“Single chain insulin with high bioactivity” (ELI LILLY AND COMPANY, priority 1995, dated 1996)",
  "key": {"IGF-1 receptor": {"test_system": "IGF-1 receptor", "test": "IGF-1 assay: displacement of [125I] ligand from human placental membranes", "assay_type": "binding", "details": "relative to IGF-1 = 100, human placental membrane protein, 24 hours at 4°C, from EC50 values of displacement curves", "procedure": "(§1) Measurements of insulin and IGF-1 activities were accomplished in substantial accordance with the teaching of Gruppuso, et al. (1988) J. of Clin. Endocrin. and Metab. 67:194-197. Briefly, 30-50 µg of human placental membrane protein was incubated with approximately 10 femtomoles of [^125I] ligand in a final volume of 500 µl of 100 mM HEPES, pH 7.8, 120mM NaCl, 5mM KCl, 1.2mM MgSO4, 8mM glucose and 0.25% BSA for 24 hours at 4°C. Membranes were collected on glass fiber filters pre-treated with 0.1% polyethyleneimine by using a cell harvester (Skatron, Lier, Norway). Binding data were analyzed by fitting displacement curves to a four parameter model employing Prefit/Allfit® software for the determination of EC50 values."}, "insulin receptor": {"test_system": "insulin receptor", "test": "Insulin assay: displacement of [125I] ligand from human placental membranes", "assay_type": "binding", "details": "relative to human insulin = 100, human placental membrane protein, 24 hours at 4°C, from EC50 values of displacement curves", "procedure": "as §1"}},
  "data": [
    {"substance": "bCa: single-chain human insulin B-chain and A-chain joined by Bridging Peptide GLY-TYR-GLY-SER-SER-SER-ARG-ARG-ALA-PRO-GLN-THR; made by solid-phase synthesis", "values": [
      {"measurement": "%IGF-1 Activity", "setting": "IGF-1 receptor", "value": 23, "unit": "%"},
      {"measurement": "%Insulin Activity", "setting": "insulin receptor", "value": 34, "unit": "%"}
    ]}
  ]
}
